Drawing on ChEMBL document CHEMBL5465560, “Selectivity Literature for EUbOPEN Chemogenomic Library” (2024), this text covers % of control and % binding for 4 compounds.

Assay [1] has as its target T1, Serine/threonine-protein kinase Nek11 (Homo sapiens) (UniProt Q8NG66).
T1 sequence (whole entry): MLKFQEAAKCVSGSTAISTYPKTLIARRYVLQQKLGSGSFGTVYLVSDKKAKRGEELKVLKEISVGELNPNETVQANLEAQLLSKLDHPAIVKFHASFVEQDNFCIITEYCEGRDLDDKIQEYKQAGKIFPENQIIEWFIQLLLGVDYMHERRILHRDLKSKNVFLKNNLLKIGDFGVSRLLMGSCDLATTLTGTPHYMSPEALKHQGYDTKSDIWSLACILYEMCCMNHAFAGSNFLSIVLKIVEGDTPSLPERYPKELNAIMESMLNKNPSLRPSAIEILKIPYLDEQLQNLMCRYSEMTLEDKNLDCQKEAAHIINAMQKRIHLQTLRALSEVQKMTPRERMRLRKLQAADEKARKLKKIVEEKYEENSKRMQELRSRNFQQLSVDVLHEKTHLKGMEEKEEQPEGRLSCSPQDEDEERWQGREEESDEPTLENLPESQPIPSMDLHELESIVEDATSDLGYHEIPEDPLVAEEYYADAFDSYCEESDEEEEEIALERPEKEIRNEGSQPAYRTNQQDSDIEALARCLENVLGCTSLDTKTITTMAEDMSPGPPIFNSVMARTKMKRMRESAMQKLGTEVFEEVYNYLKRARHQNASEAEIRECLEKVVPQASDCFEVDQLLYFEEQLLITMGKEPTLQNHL
Description: Selectivity interaction (KinomeScan (DiscoverX)) EUB0000666a NEK11. Particulars: at 10 µM.

The target of assay [2] is T2, Dual specificity tyrosine-phosphorylation-regulated kinase 2 (Homo sapiens) (UniProt Q92630).
T2 sequence (whole entry): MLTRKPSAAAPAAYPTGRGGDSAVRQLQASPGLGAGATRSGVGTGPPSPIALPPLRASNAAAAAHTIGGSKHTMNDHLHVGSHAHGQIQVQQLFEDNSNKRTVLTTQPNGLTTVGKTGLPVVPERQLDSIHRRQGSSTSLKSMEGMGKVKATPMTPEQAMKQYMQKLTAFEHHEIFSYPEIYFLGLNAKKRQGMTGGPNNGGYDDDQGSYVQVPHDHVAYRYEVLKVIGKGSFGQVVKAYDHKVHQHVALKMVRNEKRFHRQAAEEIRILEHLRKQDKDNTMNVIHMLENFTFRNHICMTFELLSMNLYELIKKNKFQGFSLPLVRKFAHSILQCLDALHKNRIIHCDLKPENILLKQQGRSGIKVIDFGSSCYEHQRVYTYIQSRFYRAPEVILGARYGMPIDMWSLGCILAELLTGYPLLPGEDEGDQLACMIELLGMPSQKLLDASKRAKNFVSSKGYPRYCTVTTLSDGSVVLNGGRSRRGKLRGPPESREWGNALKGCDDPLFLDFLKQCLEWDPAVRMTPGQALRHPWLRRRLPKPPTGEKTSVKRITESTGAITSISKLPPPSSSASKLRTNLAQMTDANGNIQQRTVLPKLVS
Description: Selectivity interaction (KinomeScan (DiscoverX)) EUB0000229b DYRK2. As to conditions: at 10 µM.

Assay [3] concerns the target T3, Mitogen-activated protein kinase 12 (Homo sapiens) (UniProt P53778).
T3 sequence (whole entry): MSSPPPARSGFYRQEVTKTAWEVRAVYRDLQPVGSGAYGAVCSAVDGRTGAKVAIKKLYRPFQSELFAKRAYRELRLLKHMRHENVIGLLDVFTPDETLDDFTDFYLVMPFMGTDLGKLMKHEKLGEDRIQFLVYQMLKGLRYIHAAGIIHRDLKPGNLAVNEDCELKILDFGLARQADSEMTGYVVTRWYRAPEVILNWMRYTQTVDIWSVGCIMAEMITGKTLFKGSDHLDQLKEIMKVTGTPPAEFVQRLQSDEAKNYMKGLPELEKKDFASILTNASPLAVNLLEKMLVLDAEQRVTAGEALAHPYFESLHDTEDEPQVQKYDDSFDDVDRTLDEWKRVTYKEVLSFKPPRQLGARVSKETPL
Description: Selectivity interaction (KinomeScan (DiscoverX)) EUB0000655a MAPK12. Particulars: at 10 µM.

Assay [4] has as its target T4, Mitogen-activated protein kinase kinase kinase 19 (Homo sapiens) (UniProt Q56UN5).
T4 sequence (whole entry): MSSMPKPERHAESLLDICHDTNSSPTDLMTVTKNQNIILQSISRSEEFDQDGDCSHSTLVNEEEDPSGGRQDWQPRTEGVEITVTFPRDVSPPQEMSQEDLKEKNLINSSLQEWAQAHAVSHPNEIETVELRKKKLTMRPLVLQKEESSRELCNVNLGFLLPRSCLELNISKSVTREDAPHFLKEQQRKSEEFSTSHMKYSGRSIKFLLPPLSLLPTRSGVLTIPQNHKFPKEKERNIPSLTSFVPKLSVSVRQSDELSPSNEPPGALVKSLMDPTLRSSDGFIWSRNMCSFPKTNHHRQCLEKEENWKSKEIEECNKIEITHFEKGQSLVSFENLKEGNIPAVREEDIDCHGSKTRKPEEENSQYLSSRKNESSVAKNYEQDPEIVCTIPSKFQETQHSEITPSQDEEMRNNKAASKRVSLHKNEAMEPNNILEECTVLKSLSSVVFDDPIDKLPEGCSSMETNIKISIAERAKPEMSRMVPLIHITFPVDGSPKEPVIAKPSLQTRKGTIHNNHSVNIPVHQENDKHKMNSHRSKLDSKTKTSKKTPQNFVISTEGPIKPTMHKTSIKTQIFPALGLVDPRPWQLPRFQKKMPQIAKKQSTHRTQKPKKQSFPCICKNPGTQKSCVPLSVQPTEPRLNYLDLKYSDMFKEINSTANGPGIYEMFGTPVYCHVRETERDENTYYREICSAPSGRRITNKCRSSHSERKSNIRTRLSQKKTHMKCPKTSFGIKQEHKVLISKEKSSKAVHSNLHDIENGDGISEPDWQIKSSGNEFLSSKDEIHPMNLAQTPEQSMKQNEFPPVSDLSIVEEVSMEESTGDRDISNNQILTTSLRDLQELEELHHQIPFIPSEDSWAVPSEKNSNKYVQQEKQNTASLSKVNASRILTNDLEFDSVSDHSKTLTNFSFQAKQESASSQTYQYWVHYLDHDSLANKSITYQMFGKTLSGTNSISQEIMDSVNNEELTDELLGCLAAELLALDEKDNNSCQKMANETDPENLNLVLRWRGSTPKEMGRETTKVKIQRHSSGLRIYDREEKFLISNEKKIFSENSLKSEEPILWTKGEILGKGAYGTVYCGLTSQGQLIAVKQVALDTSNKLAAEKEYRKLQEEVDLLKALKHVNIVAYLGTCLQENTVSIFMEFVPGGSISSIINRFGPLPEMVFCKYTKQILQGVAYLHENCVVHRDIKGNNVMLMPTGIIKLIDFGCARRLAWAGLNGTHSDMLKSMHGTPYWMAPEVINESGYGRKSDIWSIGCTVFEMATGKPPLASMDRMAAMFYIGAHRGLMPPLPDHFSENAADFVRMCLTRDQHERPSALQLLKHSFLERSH
Nature of the assay: Selectivity interaction (KinomeScan (DiscoverX)) EUB0001079a MAP3K19. As to conditions: at 1 µM.

Molecules are shown by their SMILES.

With `O=C(NOC[C@H](O)CO)c1ccc(F)c(F)c1Nc1ccc(I)cc1F`, in assay [1], the % of control came to 91%. The compound `COc1cc(N(C)c2ccnc3ccc(C(F)(F)F)cc23)cc(OC)c1OC` displayed a % binding in assay [2] of 84%. In assay [3], `CN(C)CCOc1ccc(-c2nc(-c3ccncc3)c(-c3ccc4c(c3)CC/C4=N\O)[nH]2)cc1` gave a % of control of 77%.

Consider `Nc1cnc(N2CCc3cc(S(=O)(=O)Nc4c(F)cc(Cl)cc4F)cc(N4CCCC4=O)c32)nc1` [TP-020n], for which the % of control in assay [4] came out at 100%.
